Data as given in patent publication US8247412B2, “Urea derivatives methods for their manufacture and uses thereof” (Galapagos Sasu, priority 2005, dated 2012).
Structures can show the parent of a compound that is named as a salt.

Legend:
[1] = system: serum level of PTH (1-34+1-84); assay: PTH measurement on intact rats (serum PTH after oral administration); format: in vivo, rats (Sprague-Dawley); conditions: intact male rats
[2] = system: serum level of PTH (1-34+1-84); assay: Rats with chronic renal failure (5/6 nephrectomy), serum PTH after oral administration; format: in vivo, rats (Sprague-Dawley)
Procedure: II—Rats with Chronic Renal Failure • Chronic renal failure (CRF) was induced in male rats (220-250 g, Sprague-Dawley, CERJ) by ablation of ⅚ of the total renal mass. • After anaesthesia (Imalgene 1000), the rats were subjected to exeresis of the right kidney and ablation of both ends of the left kidney, representing approximately ⅔ of the organ). • The incision was cauterised by application of dry ice. […] The sera were frozen at −20° C. • After thawing, the serum level of PTH (1-34+1-84) was measured by a radioimmunology test (IRMA kit, rat, Immutopics).

[3] = Rattus norvegicus, 0.5 h, 10 mg/kg, 30 min, read-out: % PTH reduction at 30 min relative to the untreated group

Row | Compound | change in vivo at 10 mg/kg [2, 3] [%] | further results
1 | O=C(Nc1nc2ccc(Cl)cc2s1)N(CCC(c1ccccc1)c1ccccc1)CCN1CCOCC1 [Example 2, 3-(6-chloro-benzothiazol-2-yl)-1-(3,3-diphenyl-propyl)-1-(2-morpholin-4-yl-ethyl)-urea dihydrochloride] | -84 | % PTH reduction at time t, relative to the untreated group ([1]; 30 mg/kg, at 30 mn): −93% at 30 mn
2 | Cc1ccc(-c2csc(NC(=O)N(CCC(c3ccccc3)c3ccccc3)CCN3CCOCC3)n2)cc1 [Example 28, 1-(3,3-diphenyl-propyl)-1-(2-morpholin-4-yl-ethyl)-3-(4-p-tolyl-thiazol-2-yl)-urea dihydrochloride] | -91 | –
3 | O=C(Nc1nc(-c2cccnc2)cs1)N(CCC(c1ccccc1)c1ccccc1)CCN1CCOCC1 [Example 47, 1-(3,3-diphenyl-propyl)-1-(2-morpholin-4-yl-ethyl)-3-(4-pyridin-3-yl-thiazol-2-yl)-urea trihydrochloride] | – | change in vivo at 30 mg/kg ([2]; Rattus norvegicus, 0.5 h, 30 mg/kg, 30 min, read-out: % PTH reduction at 30 min relative to the untreated group): -96%
4 | O=C(Nc1nc(-c2ccc(N3CCCC3)cc2)cs1)N(CCC(c1ccccc1)c1ccccc1)CCN1CCOCC1 [Example 36, 1-(3,3-diphenyl-propyl)-1-(2-morpholin-4-yl-ethyl)-3-[4-(4-pyrrolidin-1-yl-phenyl)-thiazol-2-yl]-urea trihydrochloride] | -98 | –
5 | CS(=O)(=O)c1ccc(-c2csc(NC(=O)N(CCC(c3ccccc3)c3ccccc3)CCN3CCOCC3)n2)cc1 [40 a] | – | % PTH reduction at time t, relative to the untreated group ([1]; 10 mg/kg, at 2 h): −71% at 2 h
6 | O=C(Nc1nc(-c2ccc(Cl)cc2)cs1)N(CCC(c1ccccc1)c1ccccc1)CCN1CCOCC1 [Example 25, 3-[4-(4-chloro-phenyl)-thiazol-2-yl]-1-(3,3-diphenyl-propyl)-1-(2-morpholin-4-yl-ethyl)-urea dihydrochloride] | -74 | –
7 | CCOC(=O)c1cc(-c2csc(NC(=O)N(CCC(c3ccccc3)c3ccccc3)CCN3CCOCC3)n2)on1 [Example 31, 5-{2-[3-(3,3-diphenyl-propyl)-3-(2-morpholin-4-yl-ethyl)-ureido]-thiazol-4-yl}-isoxazole-3-carboxylic acid ethyl ester dihydrochloride] | -85 | –
8 | O=C(Nc1nc2ccccc2s1)N(CCC(c1ccccc1)c1ccccc1)CCN1CCOCC1 [Example 8, 3-benzothiazol-2-yl-1-(3,3-diphenyl-propyl)-1-(2-morpholin-4-yl-ethyl)-urea dihydrochloride] | -80 | % PTH reduction at 2 h relative to the untreated group ([2]; 10 mg/kg, 2 h): −90%
9 | COc1ccc(-c2csc(NC(=O)N(CCC(c3ccccc3)c3ccccc3)CCN3CCOCC3)n2)cc1 [51 a] | – | % PTH reduction at time t, relative to the untreated group ([1]; 10 mg/kg, at 2 h): −78% at 2 h
10 | N#Cc1ccc(-c2csc(NC(=O)N(CCC(c3ccccc3)c3ccccc3)CCN3CCOCC3)n2)cc1 [Example 44, 3-[4-(4-cyano-phenyl)-thiazol-2-yl]-1-(3,3-diphenyl-propyl)-1-(2-morpholin-4-yl-ethyl)-urea dihydrochloride] | -88 | –
11 | Cc1ccc(-c2csc(NC(=O)N(CCC(c3ccccc3)c3ccccc3)CCN3CCOCC3)n2)o1 [Example 60, 1-(3,3-diphenyl-propyl)-3-[4-(5-methyl-furan-2-yl)-thiazol)-2-yl]-1-(2-morpholin-4-yl-ethyl)-urea dihydrochloride] | -87 | –
12 | O=C(Nc1nc(-c2ccc(F)cc2)cs1)N(CCC(c1ccccc1)c1ccccc1)CCN1CCOCC1 [54 a] | – | % PTH reduction at time t, relative to the untreated group ([1]; 10 mg/kg, at 2 h): −78% at 2 h
